Data: patent US4223038A, “Bicyclic β-lactam antibiotics” (Beecham Group Limited, priority 1977, dated 1980)
Like-named read-outs stand apart in the source and are kept apart here.

How the values were obtained:
[1] = biological target: T1, β-lactamase, Ent. Cloacae P99 (Enterobacter cloacae, UniProt P05364); test: β-Lactamase inhibition, automated chromagenic substrate assay; format: biochemical; conditions: for IC50: read-out: concentration of compound for 50% inhibition of enzyme (converted); for inhibition at 50 µg/mL: at 50 μg/ml (asterisked), read-out: amount of inhibition at maximum concentration
T1 construct: preparation not described
Experimental: (§1) Method was automated hydroxyamine assay except for compounds marked + which were tested using the automated chromagenic substrate assay.
(§2) Results are presented as concentration of compounds in μg/ml for 50% inhibition of enzyme, except a percentage indicates amount of inhibition at maximum concentration of 20 μg/ml (50 μg/ml for asterisked figures).

β-lactamase, E. Coli JT4 [2] = biological target: T2, β-lactamase, E. Coli JT4 (Escherichia coli, UniProt P62593); test: as above; format: biochemical; conditions: read-out: concentration of compound for 50% inhibition of enzyme (converted)
T2 construct: preparation not described
Experimental: as §1, §2

[3] = biological target: β-lactamase, Kleb aerog E70; test: as above; format: biochemical
Experimental: as §1, §2

[4] = biological target: T3, β-lactamase, Staph aureus Russel (Staphylococcus aureus, UniProt P00807); test: as above; format: biochemical; conditions: at 50 μg/ml (asterisked), read-out: amount of inhibition at maximum concentration
Experimental: as §1, §2

β-lactamase, Ps aerug A [5] = test: β-Lactamase inhibition, automated hydroxyamine assay; format: biochemical; conditions: for amount of inhibition at maximum concentration: at 20 μg/ml
Experimental: as §1, §2

[6] = biological target: T1, β-lactamase, Ent. Cloacae P99; test: as above; format: biochemical; conditions: for IC50: maximum concentration 20 μg/ml, read-out: concentration of compound for 50% inhibition of enzyme (converted); for inhibition at 20 µg/mL: at 20 μg/ml, read-out: amount of inhibition at maximum concentration
Experimental: as §1, §2

β-lactamase, E. Coli JT4 [7] = biological target: T2, β-lactamase, E. Coli JT4; test: as above; format: biochemical; conditions: for inhibition at 20 µg/mL: read-out: amount of inhibition at maximum concentration; for IC50: maximum concentration 20 μg/ml, read-out: concentration of compound for 50% inhibition of enzyme (converted)
Experimental: as §1, §2

[8] = test system: β-lactamase, P. Mirab C889; test: as above; format: biochemical; conditions: for concentration of compound for 50% inhibition of enzyme: maximum concentration 20 μg/ml
Experimental: as §1, §2

[9] = biological target: T3, β-lactamase, Staph aureus Russel; test: as above; format: biochemical; conditions: at 20 μg/ml, read-out: amount of inhibition at maximum concentration
Experimental: as §1, §2

[10] = Tolerance of maximum total dose in the mouse infection experiment; format: in vivo; conditions: mice; subcutaneous; maximum total dose 100 mg/kg
Experimental: (§3) Antibacterial activity in vivo [drawing 117] Experimental model: Mouse intraperitoneal infection Micro-organism: Escherichia coli 8 suspended in 3% AL1 mucin plus 1% carboxymethylcellulose
(§4) Dosing route: Subcutaneous
(§5) Dosing schedule: 1, 1.5, 2, 2.5 hours after infection
Maximum total dose was 100 mg/kg and this was tolerated by the mice.

Escherichia coli 8 = test: Antibacterial activity in vivo, mouse intraperitoneal infection; conditions: Expt R21 and R23
Experimental: as §3, §4, §5

β-lactamase, Ps aerug A [11] = test: β-Lactamase inhibition, automated chromagenic substrate assay; format: biochemical; conditions: at 50 μg/ml (asterisked)
Experimental: as §1, §2

[12] = biological target: β-lactamase, P. Mirab C889; test: as above; format: biochemical
Experimental: as §1, §2

[13] = E. Coli JT4 β-lactamase, hydroxyamine assay, at 20 μg/ml
[14] = E. Coli JT4 β-lactamase, hydroxyamine assay

T1 sequence (P05364 21-381): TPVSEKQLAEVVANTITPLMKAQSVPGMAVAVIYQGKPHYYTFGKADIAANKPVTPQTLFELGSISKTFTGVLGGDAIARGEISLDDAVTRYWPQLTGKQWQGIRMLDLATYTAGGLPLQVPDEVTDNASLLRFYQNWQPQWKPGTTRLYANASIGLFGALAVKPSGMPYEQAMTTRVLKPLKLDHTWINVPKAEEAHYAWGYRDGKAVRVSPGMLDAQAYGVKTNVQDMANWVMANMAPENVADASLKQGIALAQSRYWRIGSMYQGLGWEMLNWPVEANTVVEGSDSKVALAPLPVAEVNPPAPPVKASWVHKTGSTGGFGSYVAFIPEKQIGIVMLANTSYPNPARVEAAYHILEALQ
T3 sequence (P00807 25-281): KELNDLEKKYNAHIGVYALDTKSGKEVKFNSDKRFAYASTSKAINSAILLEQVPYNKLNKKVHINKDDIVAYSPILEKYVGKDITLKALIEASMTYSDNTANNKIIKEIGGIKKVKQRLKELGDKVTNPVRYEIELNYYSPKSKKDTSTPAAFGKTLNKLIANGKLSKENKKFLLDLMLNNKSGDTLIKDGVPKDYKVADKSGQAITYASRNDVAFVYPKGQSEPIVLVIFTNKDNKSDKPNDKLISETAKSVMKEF
T2 sequence (P62593 24-286 limits assumed): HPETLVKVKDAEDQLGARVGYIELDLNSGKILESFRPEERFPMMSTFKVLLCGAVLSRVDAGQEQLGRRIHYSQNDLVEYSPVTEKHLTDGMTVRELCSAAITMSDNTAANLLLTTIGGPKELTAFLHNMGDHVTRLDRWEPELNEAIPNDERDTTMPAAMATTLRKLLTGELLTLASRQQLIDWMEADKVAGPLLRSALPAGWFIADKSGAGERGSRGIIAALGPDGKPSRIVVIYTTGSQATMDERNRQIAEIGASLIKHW

Q: For `CC(O)[C@@H]1C(=O)N2C(C(=O)OCc3ccccc3)=C([S+]([O-])c3ccccc3)C[C@H]12` (relative stereo) [Compound 82, Benzyl trans-6-(1-hydroxyethyl)-7-oxo-3-phenylsulphinyl-1-azabicyclo[3.2.0]hept-2-ene-2-carboxylate], which IC50 [1] is on record?
A: The IC50 was 46.2 µM.

Q: What about the IC50 (β-lactamase, E. Coli JT4 [2]) of the same molecule?
A: Its IC50 is 31.6 µM.

Q: What about the “concentration of compound for 50% inhibition of enzyme” value [3] of the same molecule?
A: Its value is 2 µg/mL.

Q: What about the inhibition at 50 µg/mL [4] of the same molecule?
A: Its inhibition at 50 µg/mL is 20%.

Q: What does the source list for `CC[S+]([O-])C1=C(C(=O)OCc2ccccc2)N2C(=O)[C@@H](C(C)(C)O)[C@H]2C1` (relative stereo) [Compound 84, Benzyl 3-ethylsulphinyl-trans-6-(2-hydroxy-2-propyl)-7-oxo-1-azabicyclo[3.2.0]hept-2-ene-2-carboxylate]?
A: concentration of compound for 50% inhibition of enzyme (β-lactamase, Ps aerug A [5]; maximum concentration 20 μg/ml): 12.1 µg/mL; IC50 [6]: 10.3 µM; inhibition at 20 µg/mL (β-lactamase, E. Coli JT4 [7]; [13]): 16%

Q: For `CC[S+]([O-])C1=C(C(=O)OCc2ccccc2)N2C(=O)[C@@H](C(C)(C)O)[C@H]2C1` (relative stereo) [Compound 86, Benzyl 3-ethylsulphinyl-trans-6-(2-hydroxy-2-propyl)-7-oxo-1-aza-bicyclo[3.2.0]hept-2-ene-2-carboxylate], which IC50 [6] is on record?
A: The IC50 was 6.62 µM.

Q: Which “amount of inhibition at maximum concentration” value (“amount of inhibition” for short) (β-lactamase, Ps aerug A [5]) does the source give for `CC[S+]([O-])C1=C(C(=O)OCc2ccccc2)N2C(=O)[C@H](C(C)(C)O)[C@H]2C1` (relative stereo) [Compound 88, Benzyl 3-ethylsulphinyl-cis-6-(2-hydroxy-2-propyl)-7-oxo-1-azabicyclo[3.2.0]hept-2-ene-2-carboxylate] here?
A: Its value is 23%.

Q: And the “amount of inhibition” value ([8]; at 20 μg/ml)?
A: The value was 13%.

Q: And the IC50 [6]?
A: The IC50 was 21.7 µM.

Q: What about the IC50 (β-lactamase, E. Coli JT4 [7]; [14]) of the same molecule?
A: Its IC50 is 21.2 µM.

Q: What about the inhibition at 20 µg/mL [9] of the same molecule?
A: The inhibition at 20 µg/mL was 19%.

Q: Which results are given for `CC[S+]([O-])C1=C(C(=O)OCC(=O)c2ccc(Br)cc2)N2C(=O)C(CC=CC(=O)OC)C2C1` (single isomer, unassigned) [Compound 73, p-Bromophenacyl 3-ethylsulphinyl-6-(3-methoxycarbonylprop-2-en-1-yl)-7-oxo-1-azabicyclo[3.2.0]hept-2-ene-2-carboxylate]?
A: concentration of compound for 50% inhibition of enzyme [8]: 1.2 µg/mL; inhibition at 20 µg/mL [6]: 31%

Q: Which “tolerance of maximum total dose” value [10] does the source give for `CC[S+]([O-])C1=C(C(=O)OCc2ccccc2)N2C(=O)CC2C1` (centres unmarked) [Compound 55, Benzyl 3-ethylsulphinyl-7-oxo-1-azabicyclo[3.2.0]hept-2-ene-2-carboxylate] here?
A: Its value is “tolerated”.

Q: And the “concentration of compound for 50% inhibition of enzyme” value [8]?
A: The value was 4 µg/mL.

Q: And the inhibition at 20 µg/mL (β-lactamase, E. Coli JT4 [7])?
A: Its inhibition at 20 µg/mL is 28%.

Q: And the ED50 (Escherichia coli 8; Escherichia coli, 8, sc, 2.5 h, mouse i.p. infection with Escherichia coli 8, subcutaneous dosing 1, 1.5, 2, 2.5 hours after infection, total dose, read-out: CD50 Value mg/kg (total dose))?
A: The ED50 was 5.2 mg/kg.

Q: What about the “CD50 Value mg/kg (total dose)” value (Escherichia coli 8; mouse i.p. infection with Escherichia coli 8, subcutaneous dosing 1, 1.5, 2, 2.5 hours after infection) of the same molecule?
A: Its value is 8.8 mg/kg.

Q: For `CC[S+]([O-])C1=C(C(=O)OCc2ccccc2)N2C(=O)CC2C1` (centres unmarked) [Compound 57, Benzyl 3-ethylsulphinyl-7-oxo-1-azabicyclo[3.2.0]hept-2-ene-2-carboxylate], which “amount of inhibition” value (β-lactamase, Ps aerug A [11]) is on record?
A: Its value is 47%.

Q: And the “concentration of compound for 50% inhibition of enzyme” value [12]?
A: Its value is 3.5 µg/mL.

Q: What about the inhibition at 50 µg/mL [1] of the same molecule?
A: The inhibition at 50 µg/mL was 19%.

Q: And the IC50 (β-lactamase, E. Coli JT4 [2])?
A: Its IC50 is 28.2 µM.

Q: What about the “amount of inhibition” value ([3]; at 50 μg/ml (asterisked)) of the same molecule?
A: Its value is 17%.

Q: What does the source list for `CC(=O)NCC[S+]([O-])C1=C(C(=O)OCc2ccccc2)N2C(=O)CC2C1` (centres unmarked) [Compound 63, Benzyl 3-(2-acetamidoethylsulphinyl)-7-oxo-1-azabicyclo[3.2.0]hept-2-ene-2-carboxylate]?
A: concentration of compound for 50% inhibition of enzyme [8]: 3.3 µg/mL; inhibition at 20 µg/mL [6]: 16%; inhibition at 20 µg/mL (β-lactamase, E. Coli JT4 [7]; [13]): 29%

Q: What does the source list for `CC(=O)Nc1ccc([S+]([O-])C2=C(C(=O)OCc3ccccc3)N3C(=O)CC3C2)cc1` (centres unmarked) [Compound 65, Benzyl 3-p-acetamidophenylsulphinyl-7-oxo-1-azabicyclo[3.2.0]hept-2-ene-2-carboxylate]?
A: inhibition at 50 µg/mL [1]: 47%; IC50 (β-lactamase, E. Coli JT4 [2]): 0.825 µM; inhibition at 50 µg/mL [4]: 35%

Q: For `CC(=O)Nc1ccc([S+]([O-])C2=C(C(=O)OCc3ccccc3)N3C(=O)CC3C2)cc1` (centres unmarked) [Compound 67, Benzyl 3-p-acetamidophenylsulphinyl-7-oxo-1-azabicyclo[3,2,0]hept-2-ene-2-carboxylate], which IC50 [1] is on record?
A: Its IC50 is 118 µM.

Q: What about the IC50 (β-lactamase, E. Coli JT4 [2]) of the same molecule?
A: Its IC50 is 1.84 µM.

Q: What does the source list for `COC(=O)C=CCC1C(=O)N2C1CC(Cl)([S+]([O-])c1ccccc1)C2C(=O)OCc1ccccc1` (stereo not drawn) [Compound 68, Benzyl 3-chloro-6-(3-methoxycarbonylprop-2-ene-1-yl)-7-oxo-3-phenylsulphinyl-1-azabicyclo[3.2.0]heptane-2α-carboxylate]?
A: concentration of compound for 50% inhibition of enzyme [8]: 0.6 µg/mL; inhibition at 20 µg/mL [6]: 25%; IC50 (β-lactamase, E. Coli JT4 [7]; [14]): 15.9 µM

Q: What does the source list for `COC(=O)C=CCC1C(=O)N2C(C(=O)OCc3ccccc3)=C([S+]([O-])c3ccccc3)CC12` (centres unmarked) [Compound 69, Benzyl 6-(3-methoxycarbonylprop-2-en-1-yl)-7-oxo-3-phenylsulphnyl-1-azabicyclo[3.2.0]hept-2-ene-2-carboxylate]?
A: amount of inhibition at maximum concentration (β-lactamase, Ps aerug A [5]): 44%; concentration of compound for 50% inhibition of enzyme [8]: 2.4 µg/mL; inhibition at 20 µg/mL [6]: 23%; IC50 (β-lactamase, E. Coli JT4 [7]; [14]): 26.2 µM

Q: For `COC(=O)C=CCC1C(=O)N2C(C(=O)OCc3ccccc3)=C([S+]([O-])c3ccccc3)CC12` (centres unmarked) [Compound 71, Benzyl 6-(3-methoxycarbonylprop-2-en-1-yl)-7-oxo-3-phenylsulphinyl-1-azabicyclo[3.2.0]hept-2-ene-2-carboxylate], which “concentration of compound for 50% inhibition of enzyme” value [8] is on record?
A: The value was 2.0 µg/mL.

Q: And the IC50 (β-lactamase, E. Coli JT4 [7]; [14])?
A: Its IC50 is 18.3 µM.

Q: With `CC[S+]([O-])C1=C(C(=O)OC2OC(=O)c3ccccc32)N2C(=O)C(CC=CC(=O)OC)C2C1` (centres unmarked) [Compound 78, Phthalidyl 3-ethylsulphinyl-6-(3-methoxycarbonylprop-2-en-1-yl)-7-oxo-1-azabicyclo[3.2.0]hept-2-ene-2-carboxylate] as the molecule, how does the IC50 [6] read?
A: The IC50 was 19.2 µM.

Q: What about the inhibition at 20 µg/mL (β-lactamase, E. Coli JT4 [7]; [13]) of the same molecule?
A: The inhibition at 20 µg/mL was 16%.

Q: What does the source list for `CC[S+]([O-])C1=C(C(=O)OCc2ccccc2)N2C(=O)C(Cc3ccccc3)C2C1` (centres unmarked) [Compound 80, Benzyl 6-benzyl-3-ethylsulphinyl-7-oxo-1-azabicyclo[3.2.0]hept-2-ene-2-carboxylate]?
A: IC50 [1]: 52 µM; IC50 (β-lactamase, E. Coli JT4 [2]): 20.8 µM; concentration of compound for 50% inhibition of enzyme [3]: 24 µg/mL
